Data as given in PubChem BioAssay (NCI).
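Interpolation was linear, between the two tested concentrations surrounding the appropriate level; five concentrations were tested over 48 hours in 96-well plates. GI50: concentration for 50% inhibition of growth. TGI: total growth inhibition.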

Columns and labels:
Assay in all cases: NCI anticancer screen, dose series, 48 h
HT29 colon = system: HT29 colon
SNB-19 CNS = system: SNB-19 CNS
SNB-75 CNS = system: SNB-75 CNS
LOX IMVI melanoma = system: LOX IMVI melanoma
OVCAR-8 ovarian = system: OVCAR-8 ovarian
RPMI-8226 leukemia = system: RPMI-8226 leukemia
OVCAR-5 ovarian = system: OVCAR-5 ovarian
TK-10 renal = system: TK-10 renal
A498 renal = system: A498 renal
SK-OV-3 ovarian = system: SK-OV-3 ovarian

SMILES	TGI (HT29 colon)	TGI (SNB-19 CNS)	TGI (SNB-75 CNS)	TGI (LOX IMVI melanoma)	TGI (OVCAR-8 ovarian)	TGI (RPMI-8226 leukemia)	TGI (OVCAR-5 ovarian)	TGI (TK-10 renal)	TGI (A498 renal)	TGI (SK-OV-3 ovarian)	GI50 (HT29 colon)	GI50 (SNB-19 CNS)	GI50 (SNB-75 CNS)	GI50 (LOX IMVI melanoma)	GI50 (OVCAR-8 ovarian)	GI50 (OVCAR-5 ovarian)	GI50 (TK-10 renal)	GI50 (A498 renal)	GI50 (SK-OV-3 ovarian)	GI50 (RPMI-8226 leukemia)
CC(=O)C1(C(=O)C(=[N+]=[N-])S(=O)(=O)c2ccccc2)CC1	> 100 µM	> 100 µM	> 100 µM	> 100 µM	> 100 µM	> 100 µM	> 100 µM	> 100 µM												
N#Cc1ccccc1Sc1ccccc1N	> 100 µM	> 100 µM		> 100 µM	> 100 µM		> 100 µM	> 100 µM	> 100 µM	> 100 µM										
C/C(=C/CCC(C)[C@@H]1CC[C@]2(C)C3=C(CC[C@@]12C)[C@@]1(C)CCC(=O)C(C)(C)[C@@H]1CC3)C(=O)O (stereo partly drawn)	3.04 µM	2.68 µM	3.22 µM	2.49 µM	3.2 µM		3.29 µM	2.83 µM	2.39 µM	3.18 µM	1.39 µM	1.17 µM	1.69 µM	0.961 µM	1.42 µM	1.68 µM	1.45 µM	0.975 µM	1.78 µM	
Cc1ccc(S(=O)(=O)Nc2ccccc2C(C)(C)C)cc1	31.9 µM		> 100 µM		> 100 µM	54.3 µM	> 100 µM	> 100 µM	59.7 µM	81.3 µM										
Nc1nc(Cl)c2ncn(Cc3ccc(C45CC6CC(CC(C6)C4)C5)c(OCc4cc(F)c(F)cc4F)c3)c2n1	22.7 µM	46.6 µM	> 100 µM	8.64 µM	14.2 µM		33.9 µM	10.3 µM	22.8 µM	42.2 µM	3.45 µM	6.48 µM	27.5 µM	1.88 µM	2.94 µM	13.4 µM	2.88 µM	8.78 µM	6.02 µM	
CS(=O)(=O)OCCN1CCN(C(=O)c2ccc(Cl)c3c(Nc4ccc(S(=O)(=O)N=C(N)N)cc4)c4ccccc4nc23)CC1	> 100 µM	> 100 µM	> 100 µM		> 100 µM	> 100 µM	> 100 µM	> 100 µM	> 100 µM	> 100 µM										
C#Cc1cccc(NC(=O)/C=C\C(=O)O)c1	> 100 µM	> 100 µM	> 100 µM		> 100 µM	> 100 µM	> 100 µM	> 100 µM	> 100 µM	> 100 µM										
CC(C)c1ccc(Cc2ccc(C(C)C)c(NC(=O)C(=O)Cc3cnc4ccccc4n3)c2C(C)C)c(C(C)C)c1NC(=O)C(=O)Cc1cnc2ccccc2n1		> 100 µM		> 100 µM	> 100 µM	> 100 µM	> 100 µM	> 100 µM	> 100 µM	> 100 µM										
O=C(O)c1ccccc1NCn1nc(-c2ccccc2O)oc1=S	> 100 µM	> 100 µM		38.9 µM	> 100 µM	24.5 µM	> 100 µM	> 100 µM			34.9 µM	> 100 µM		19.4 µM	> 100 µM	> 100 µM	> 100 µM			4.14 µM
CCOC(=O)c1cn(C)c2c(OC)c3ccccc3c(OC)c2c1=O	> 100 µM	> 100 µM	> 100 µM	58.6 µM	63.7 µM	> 100 µM	> 100 µM	62 µM		> 100 µM	64.3 µM	36.6 µM	> 100 µM	20.7 µM	20.2 µM	30.9 µM	30.1 µM		77.1 µM	23.8 µM
NC(=O)c1nc(-c2c(F)cccc2Cl)oc1Nc1ccc(C(=O)N2CCOCC2)cc1	> 100 µM	> 100 µM		5.61 µM	> 100 µM	50.7 µM	> 100 µM	34.2 µM	3.28 µM	75.2 µM	1.62 µM	3 µM		0.914 µM	5.83 µM	2.31 µM	2.33 µM	0.544 µM	2.58 µM	7.44 µM
COc1ccc(N(CC(=O)O)N=O)cc1	> 100 µM	> 100 µM		> 100 µM	> 100 µM	> 100 µM	> 100 µM	> 100 µM	> 100 µM	> 100 µM										
C=C1C(=O)O[C@@H]2C[C@@]3(C)[C@H](O)CCC(=C)[C@@H]3C[C@H]12	12.1 µM	46.9 µM	15.2 µM	20.7 µM	23.3 µM	13.4 µM	20.5 µM	25 µM		52.6 µM										
CCCC(O)[C@@]1(CC)CC(C)C(O)(C2(C)C[C@H](C)[C@@H](C(CC)C(=O)C(C)[C@@H](O)[C@H](C)C3OC(O)(C(CC)C(=O)O)[C@@H](C)C(O)C3CC)O2)O1 (stereo partly drawn)	2.09 µM	3.15 µM	2.18 µM	1.57 µM	6.05 µM		5.35 µM	6.74 µM	2.15 µM	6.54 µM										
CC(C)(C)C1=NO[C@H]2[C@@H](NC(=O)c3ccccc3)CC[C@@H]12	> 100 µM	> 100 µM	> 100 µM	> 100 µM	> 100 µM	> 100 µM	> 100 µM	> 100 µM		> 100 µM										
N#CC(C(=O)Nc1ccccc1)C1=C(Cl)C(=O)c2ccccc2C1=O (stereo not drawn)	67.5 µM	36.3 µM		29.8 µM	46.1 µM		32.2 µM	36.7 µM	> 100 µM	> 100 µM										
Cc1ccc(-n2c3nc(=O)n(C)c(=O)c-3nc3ccccc32)c(C)c1	11.7 µM	16.1 µM	26.7 µM	33.9 µM	32.9 µM	42.4 µM	32.7 µM	27.2 µM		75.8 µM										
CC(C)(C)OC(=O)N[C@H]1CC(=O)c2ccccc2N(CC(=O)O)C1=O	> 100 µM	> 100 µM	> 100 µM	> 100 µM	> 100 µM			> 100 µM		> 100 µM										
Cc1ccccc1Nc1cc(O)c2c(=O)cc(-c3ccccc3)oc2c1	> 100 µM	> 100 µM		> 100 µM	> 100 µM	> 100 µM	> 100 µM			> 100 µM	3.25 µM	2.98 µM		2.75 µM	3.61 µM	> 100 µM			5.56 µM	2.87 µM
O=c1c2ccccc2nc(-c2cccc(Cl)c2)n1NC1OC(CO)C(O)C(O)C1O (stereo not drawn)	> 100 µM	> 100 µM	> 100 µM		> 100 µM	> 100 µM	> 100 µM	> 100 µM	> 100 µM	> 100 µM										
OCC1OC(OC2(CO)OC(CO)C(O)C2O)C(O)C(O)C1O (stereo not drawn)	> 100 µM	> 100 µM	> 100 µM	> 100 µM	> 100 µM	> 100 µM	> 100 µM	> 100 µM		> 100 µM	> 100 µM	> 100 µM	> 100 µM	> 100 µM	> 100 µM	> 100 µM	> 100 µM		> 100 µM	> 100 µM
CCN1C(=O)N(CC)C2C1NC(=S)N2/N=C/C=C/c1ccccc1 (stereo not drawn)	> 31.8 µM	> 100 µM		> 100 µM	> 100 µM	> 64.2 µM	> 100 µM	> 100 µM	0.146 µM	> 100 µM	0.111 µM	0.127 µM		0.154 µM	0.27 µM	0.465 µM	3.66 µM	0.0249 µM	0.494 µM	0.183 µM
Oc1cn(-c2ccc(Cl)cc2)nc1-c1n[nH]c(=S)n1-c1ccc(F)cc1	> 100 µM	> 100 µM		43 µM	> 100 µM	> 100 µM	> 100 µM	> 100 µM	76.5 µM	> 100 µM	43.2 µM	61.9 µM		16.8 µM	27.3 µM	32 µM	28.1 µM	34.6 µM	> 100 µM	22.2 µM
COc1ccc(/C=C/C(=O)c2c(-c3ccccc3)nn(C)c(=O)c2N2CCCCC2)cc1	35.9 µM	86.5 µM		38.2 µM	> 100 µM	31.8 µM		> 100 µM		77.6 µM										
N#Cc1c(-c2ccccc2)c(-c2ccccc2)cc2c(=O)c3ccc(Cl)cc3[nH]c12	> 100 µM	> 100 µM	> 100 µM		> 100 µM	> 100 µM	> 100 µM	> 100 µM		> 100 µM										
CCN(CC)CCCC(Nc1c2ccc(Cl)cc2nc2ccc(OC)cc12)c1ccc(Cl)cc1 (stereo not drawn)	1.75 µM		2.44 µM		2.47 µM	1.8 µM	3.36 µM	3.14 µM	2.64 µM	3.89 µM	0.45 µM		1.16 µM		1.05 µM	1.74 µM	1.62 µM	1.26 µM	2.05 µM	0.449 µM
CC(C)(C)O/N=C/c1cc(NC(=S)c2ccccc2)ccc1Cl	29.2 µM	63.8 µM		30.4 µM	35.6 µM	41 µM	69.7 µM	31.1 µM	27.6 µM	> 100 µM										
